# Counter-ions that a name gives are not always drawn. Like-named read-outs stand apart in the source and are kept apart here.
# Assays:
# human hepatocytes = assay: Human Hepatocyte Assay (HHEP); type: in vitro ADME; details: 1 μM test compound, 0.5 million viable cells/mL
# [1] = Reactive Metabolite Assay; type: in vitro ADME
# Procedure: [formula] Reactive Metabolite Assay Protocol Metabolite activity in Table 2 is measured using a reactive metabolite assay protocol as described in Reactive Metabolite assay protocol: See J. R. Soglia et al., J. Pharm. Biomed. Anal. 2004, 36, 105-116.
# human KATII enzyme = human KATII enzyme (Homo sapiens, UniProt Q8N5Z0); assay: KATII Kinetic Assay (kinact/KI determination); type: biochemical; details: read-out: hKATII kinact/KI
# Sequence of human KATII enzyme (Q8N5Z0 30-425): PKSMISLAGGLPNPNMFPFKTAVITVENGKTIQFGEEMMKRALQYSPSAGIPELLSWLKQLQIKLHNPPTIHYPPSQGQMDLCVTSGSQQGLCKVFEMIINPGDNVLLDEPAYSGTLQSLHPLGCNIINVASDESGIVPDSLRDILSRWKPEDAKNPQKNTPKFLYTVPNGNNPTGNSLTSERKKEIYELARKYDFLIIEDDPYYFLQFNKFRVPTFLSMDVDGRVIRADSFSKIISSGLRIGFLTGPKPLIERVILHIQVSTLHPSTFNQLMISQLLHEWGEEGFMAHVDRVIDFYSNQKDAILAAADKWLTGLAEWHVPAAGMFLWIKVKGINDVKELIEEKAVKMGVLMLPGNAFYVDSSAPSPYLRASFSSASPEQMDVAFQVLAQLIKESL
# Procedure: The compounds of the present invention are irreversible inhibitors of KATII. Potency of irreversible inhibitors is best characterized by kinact/KI (See Copeland, R. A.; “Evaluation of Enzyme Inhibitors in Drug Discovery,” Wiley, 2005).
# Test compounds were dissolved in 100% DMSO and diluted to the required concentrations in 100% DMSO. An additional aqueous dilution was made so that the compound at 3× final concentration was 1.0% DMSO in the assay specific buffer. Compounds were tested at 11 concentrations. Final DMSO concentrations in the assay plate were equal to 0.33%.
# KATII enzyme activity was followed by measuring the loss of absorbance of the L-KYN substrate at an absorbance wavelength of 370 nm. The KATII assays were run in a 384 well format at a final volume of 30 μL using 150 mM Tris Acetate buffer (pH7.0), 1 mM L-KYN,1 mM α-ketoglutaric acid, 70 μM PLP, 0.1% BGG and either 30 nM human KATII enzyme or 5 nM rat KATII enzyme KATII enzyme. Compound was diluted in 100% DMSO and spotted prior to the addition of the other reagents. Enzyme was always added last. Assay plates were sealed around the edges with tape and immediately read on a SpectraMax plate reader at an absorbance wavelength of 370 nm. The SpectraMax plate reader was set up to read every 5 min for 16 hours.
# The following steps are taken to ensure consistent production of kinetic read data: • 1. A 10 μL aliquot of the compound dilutions (described above in compound preparation) was added to the assay plate by hand followed by a quick spin to ensure compound was collected at bottom of well. • 2. A 10 μL aliquot of substrate mix containing the L-KYN, a-ketoglutaric acid and PLP was then added to the assay plate via a Multidrop instrument. • 3. Finally, a 10 μL aliquot of a 3× concentration of enzyme stock soluton was added last to initiate the reaction via a Multidrop instrument. • 4. The microplate lid was placed onto the assay plate and taped to seal in humidity, and the assay plate was put into the SpectraMax reader. A quick vibration on the plate platform was done to ensure mixing, and the absorbance was read (wavelength of 370 nm) every 5 min over 16 h at room temperature. Determination of Potencies (kinact/Kl Values)
# The direct substrate absorbance loss assay described above was performed for the determination of potencies (kinact/Kl values). The overall potency, kinact/K1 values, were determined using the general approach described by M. Mileni et al., Proc. Natl. Acad. Sci. USA 2008, 105 12820-12824 and K. Ahn et al. Chem. Biol. 2009, 16, 411-420. Reaction progress curves (decrease in A370 nm with time) were obtained in the presence of eleven concentrations of inhibitor with top dose at […]. A null inhibitor control is always included. Absorbance read data were collected for 16 hours at 5 minute intervals. […] Each progress curve was fit to a one phase exponential decay model (equation 1) to determine kobserved (kobs) values at each inhibitor concentration, where At is absorbance at time t, A0 is the absorbance at t=infinite, A1 is a total absorbance change (the absorbance difference between t=0 and t=infinite), and kobs is the first order rate constant for enzyme inactivation. […] When [I]<<K1, equation 2 is simplified to equation 3, where the kinact/Kl is calculated from the slope, kinact/[Kl(1+[S]/Km)], which is obtained from the kobs vs [I] linear regression fit. […]
# [2] = Pharmacokinetics Studies in Dog; type: in vivo; parameters: AUC/dose: unit not given beside the values; details: dogs; for AUC / C0 / clearance / half-life / Cmax: male, beagle, dog, plasma
# Procedure: Pharmacokinetics Studies in Dog Test substances (Examples 2-3) were administered by oral gavage or IV administration to groups of two dogs. The two male dogs were beagles obtained from Marshal Farms, weighing from about 9 to about 12 kg at start of treatment and ranging in age between approximately 4 to approximately 6 years. Blood samples were taken times of 0.25, 0.5, 1, 2, 4, 7, and 24 h after administration and submitted to analysis for the drug substance using an LC-MS-MS assay. Pharmacokinetic parameters derived from the plasma analytical data were determined using Watson 7.2.003.
# [3] = biological target: human KAT II (hKAT II) enzyme (Homo sapiens, UniProt Q8N5Z0); assay: Human KAT II Inhibition Spectra Assay; type: biochemical
# Sequence of human KAT II (hKAT II) enzyme (Q8N5Z0 30-425): as above
# Procedure: Human KAT II Inhibition Spectra Assay Formation of kynurenic acid (KYNA) is indirectly assessed by a decrease in light absorbance at 370 nm (OD370) as the L-kynurenine (KYN) substrate is converted by the human KAT II (hKAT II) enzyme into KYNA. An inhibitor would therefore inhibit the decrease in OD370. The protocol was performed by placing the following reagents into a Costar 384 well black plate (30 μL total assay volume/well): • 10 μL of 3× concentrated compound; • 10 μL of 3× concentrated substrate mix (BGG (Sigma G-5009); 3 mM L-Kynurenine in 150 mM Tris Acetate (Sigma K3750); 3 mM α-ketoglutaric acid in 150 mM Tris Acetate (Sigma K2010); and 210 μM pyridoxal 5-phosphate (PLP) in 150 mM Tris Acetate (Sigma 9255)); and • 10 μL of 3× concentrated enzyme (15 nM enzyme in 150 mM Tris Acetate with 0.3% bovine serum). Plates were sealed and incubated at 37° C. for 15-20 h before reading OD370 on a SpectraMax Plus plate reader. IC50s were generated by comparing the efficacy of compounds across a concentration range to inhibit a reduction in the OD370 value relative to assay wells with DMSO added in place of concentrated compound. Biological data for the Examples may be found Tables 1 and 2.
# [4] = IV administration, dose = 0.5 mg/kg
# [5] = oral administration, dose 5 mg/kg (Ex 3, 2), 2 mg/kg (Ex 5)
# [6] = OD370 readout, 37° C., 15-20 h incubation, read-out: hKATII IC50
Structure (SMILES),"HHEP CLint, app (human hepatocytes)",Reactive Metabolite Formation [1],kinact/KI (human KATII enzyme),"AUC/dose [2, 4]","AUC/dose [2, 5]","Cmax/dose [2, 5]","AUC [2, 4]","C0 [2, 4]","clearance [2, 4]","half-life [2, 4]","AUC [2, 5]","Cmax [2, 5]","half-life [2, 5]",IC50 [3],"IC50 [3, 6]","kinact/KI (human KATII enzyme; 30 nM human KATII enzyme, room temperature)"
"CC(C)Oc1ccc2c(c1)N(O)C(=O)[C@@H](N)C2 [Example 5, (3S)-3-Amino-1-hydroxy-7-isopropoxy-3,4-dihydroquinolin-2(1H)-one, HCl Salt]",44.7 μL/min/million,Yes,17100 M⁻¹ s⁻¹,436,9.3,9.8,218 ng·h/mL,265 ng/mL,38.7 mL/min/kg,36 min,18.6 ng·h/mL,19.6 ng/mL,27.6 min,32 nM,–,–
"N#Cc1ccc2c(c1)N(O)C(=O)[C@@H](N)C2 [Example 1, (3S)-3-Amino-1-hydroxy-2-oxo-1,2,3,4-tetrahydroquinoline-7-carbonitrile, HCl Salt]",24.8 μL/min/million,–,46200 M⁻¹ s⁻¹,–,–,–,–,–,–,–,–,–,–,–,19 nM,–
"N#Cc1cccc2c1N(O)C(=O)C(N)C2 (stereo not shown) [Example 6, 3-Amino-1-hydroxy-2-oxo-1,2,3,4-tetrahydroquinoline-8-carbonitrile, HCl Salt]",–,–,–,–,–,–,–,–,–,–,–,–,–,–,30 nM,–
"N[C@H]1Cc2ccccc2N(O)C1=O [Example 4, (3S)-3-Amino-1-hydroxy-3,4-dihydroquinolin-2(1H)-one]",39.6 μL/min/million,–,21500 M⁻¹ s⁻¹,–,–,–,–,–,–,–,–,–,–,–,27 nM,–
"COC[C@H](C)Oc1ccc2c(c1)N(O)C(=O)[C@@H](N)C2 [Example 2, (3S)-3-Amino-1-hydroxy-7-[(1S)-2-methoxy-1-methylethoxy]-3,4-dihydroquinolin-2(1H)-one, HCl Salt]",19.8 μL/min/million,No,25100 M⁻¹ s⁻¹,370,39,46,185 ng·h/mL,352 ng/mL,44.9 mL/min/kg,30 min,195 ng·h/mL,229 ng/mL,137 min,–,18 nM,–
"COCCOc1ccc2c(c1)N(O)C(=O)[C@@H](N)C2 [Example 3, (3S)-3-Amino-1-hydroxy-7-(2-methoxyethoxy)-3,4-dihydroquinolin-2(1H)-one, HCl Salt]",30.1 μL/min/million,No,–,388,31.2,39.6,194 ng·h/mL,446 ng/mL,43.4 mL/min/kg,54 min,156 ng·h/mL,198 ng/mL,63 min,–,22 nM,22300 M⁻¹ s⁻¹

# Source: patent publication US8487104B2, “KAT II inhibitors” (Pfizer Inc., priority 2010, dated 2013)
